What was measured:
[1] = biological target: T1, sulfotransferase domain of human NDST-1 (Homo sapiens, UniProt P52848); assay: Dot-blot assay for NDST-1 (sulfation of de-N-sulfated heparin with 35S-PAPS); assay type: biochemical; conditions: FIG. 5A Lineweaver-Burk plot
T1 construct: A plasmid containing the sulfotransferase domain of human NDST-1 fused to glutathione S-transferase; glutathione S-transferase (cleaved yes); made in house
T1 sequence (P52848 599-882 limits assumed): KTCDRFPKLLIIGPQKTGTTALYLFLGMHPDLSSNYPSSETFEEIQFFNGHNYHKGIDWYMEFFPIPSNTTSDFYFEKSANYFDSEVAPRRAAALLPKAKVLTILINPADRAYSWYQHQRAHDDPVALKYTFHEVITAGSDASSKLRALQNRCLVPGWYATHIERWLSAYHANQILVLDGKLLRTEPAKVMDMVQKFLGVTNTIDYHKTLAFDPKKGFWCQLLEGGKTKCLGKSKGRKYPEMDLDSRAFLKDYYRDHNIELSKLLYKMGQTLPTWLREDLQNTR
Protocol: For the NDST-1 assay, de-N-sulfated heparin (0.02-0.1 mg) and 0.1 μg of enzyme were added to 50 mM HEPES-NaOH (pH 7.0), 0.15 M NaCl, 0.75 mg/mL protamine, 0.4% Triton X-100, 15% glycerol in a total volume of 25 μL in a 96-well plate. Reactions were initiated with 0.15 μM ^35S-labeled PAPS (“^35S-PAPS”)(0.1-0.5 μCi per reaction), incubated at 25° C. for 15 min, and terminated by the addition of 30 μL of MeOH. A 15-μL aliquot was removed from each well and diluted 100-fold, and 15-25 μL were then transferred to the wells of the dot-blot apparatus. A vacuum was applied, and the wells were washed and eluted as described below. Control reactions with heat-killed (100° C., 5 min) enzyme were included to monitor background binding of ^35S-PAPS and ^35S-SO4^2− to the membrane after washing.
(§1) Hybond-N+ membranes were pre-wetted with H2O and Hybond-P membranes were pre-wetted with MeOH before assembling the dot-blot apparatus. The quenched and diluted reactions were added to the wells, and a vacuum was applied to load products onto the membrane. To elute ^35S-PAPS while retaining ^35S-labeled heparin or GlcNAc-PAA on the membrane, the wells were washed twice with 40 μL of PAPS elution buffer (EB) ((NH4)2SO4 pH 3.0), while maintaining a gentle vacuum. […] The amount of ^35S-labeled product associated with the membrane was then quantified by phosphorimaging.

GST-3 = biological target: T2, GST-3 (Homo sapiens, UniProt Q8NCG5); assay: Dot-blot assay for GST-3 (sulfation of β-GlcNAc-PAA with 35S-PAPS); assay type: biochemical; conditions: FIG. 5B Lineweaver-Burk plot
T2 sequence (Q8NCG5 1-386): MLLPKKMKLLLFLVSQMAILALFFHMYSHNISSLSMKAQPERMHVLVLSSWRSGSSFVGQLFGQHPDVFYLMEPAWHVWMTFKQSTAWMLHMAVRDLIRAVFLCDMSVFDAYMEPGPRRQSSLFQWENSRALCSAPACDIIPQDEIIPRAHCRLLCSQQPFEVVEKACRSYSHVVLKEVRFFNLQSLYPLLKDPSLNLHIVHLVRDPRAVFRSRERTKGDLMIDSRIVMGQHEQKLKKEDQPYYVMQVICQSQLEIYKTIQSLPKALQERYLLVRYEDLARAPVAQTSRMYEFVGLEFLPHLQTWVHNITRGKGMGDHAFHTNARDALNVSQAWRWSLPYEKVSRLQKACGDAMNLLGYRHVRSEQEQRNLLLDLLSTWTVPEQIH
Protocol: A typical assay included an appropriate volume of enzyme solution, 0.6-1.0 μg of β-GlcNAc-PAA, 0.1% Triton X-100, 10% glycerol, 4 mM Mg(OAc)2, 10 mM NaF, 1 mM ATP, in 30 mM HEPES-NaOH (pH 6.0), diluted to a total volume of 25 μL in a 96-well plate. Reactions were initiated with 2.0 μM ^35S-PAPS (0.1-0.5 μCi per reaction), incubated at 25° C. for 2 h, and terminated with 30 μL of MeOH. A 15-μL aliquot was removed from each well and diluted 100-fold, and 15-25 μL of the solution were transferred to the wells of the dot-blot apparatus. A vacuum was applied, and the wells were washed and eluted as described below. Control reactions with heat-killed enzyme were included to monitor background binding of ^35S-PAPS and ^35S-SO4^2− to the membrane after washing.
as §1

Nc1ncnc2c1ncn2[C@@H]1O[C@H](COP(=O)(O)O)[C@@H](OP(=O)(O)O)[C@H]1O [3′,5′-ADP]
mode of enzyme inhibition (double reciprocal plots of signal versus PAPS concentration) [1]: competitive inhibitor
mode of enzyme inhibition (double reciprocal plots of signal versus PAPS concentration) (GST-3): competitive inhibitor
